Data: article PMC5824344 (ACS Chemical Biology, 2017)

Biological target: T1, Rat liver ER α-glucosidase I (Rattus norvegicus, UniProt O88941)
T1 construct: Rat liver ER, I; from tissue; host or cells: liver of male Wistar rats
T1 sequence (O88941 1-834): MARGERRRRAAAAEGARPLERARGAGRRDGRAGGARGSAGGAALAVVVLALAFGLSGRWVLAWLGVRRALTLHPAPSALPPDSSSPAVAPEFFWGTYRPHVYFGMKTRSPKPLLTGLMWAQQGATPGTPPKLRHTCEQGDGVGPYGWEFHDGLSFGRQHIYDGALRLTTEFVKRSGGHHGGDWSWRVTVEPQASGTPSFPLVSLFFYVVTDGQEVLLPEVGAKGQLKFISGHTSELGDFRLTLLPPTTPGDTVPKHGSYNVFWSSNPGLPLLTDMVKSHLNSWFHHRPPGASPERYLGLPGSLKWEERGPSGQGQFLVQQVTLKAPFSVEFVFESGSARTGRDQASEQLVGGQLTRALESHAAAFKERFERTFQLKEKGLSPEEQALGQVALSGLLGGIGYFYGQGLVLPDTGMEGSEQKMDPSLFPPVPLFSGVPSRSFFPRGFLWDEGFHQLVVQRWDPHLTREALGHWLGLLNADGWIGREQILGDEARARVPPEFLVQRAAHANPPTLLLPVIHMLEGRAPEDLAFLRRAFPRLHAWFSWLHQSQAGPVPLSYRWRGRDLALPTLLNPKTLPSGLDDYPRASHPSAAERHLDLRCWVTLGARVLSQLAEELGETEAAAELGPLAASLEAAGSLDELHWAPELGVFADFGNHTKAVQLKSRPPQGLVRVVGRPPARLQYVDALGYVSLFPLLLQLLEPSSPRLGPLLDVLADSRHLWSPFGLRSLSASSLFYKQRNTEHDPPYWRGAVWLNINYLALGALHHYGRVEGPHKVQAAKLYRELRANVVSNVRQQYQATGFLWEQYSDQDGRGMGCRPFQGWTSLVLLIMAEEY
Assay: Inhibition of isolated rat liver ER α-glucosidase I (anthranilic acid-labelled Glc3Man7GlcNAc2 substrate, HPLC)
Format: biochemical
Settings: for IC50: isolated enzyme in vitro, mean of three measurements
Method: 4 Enzyme Inhibition Assays
All rat enzymes were isolated from 18-week-old, male Wistar rats, while human lysosomal α-glucosidase was obtained in commercially available form from Sanoﬁ Genzyme. Inhibition of isolated glucosidases was evaluated as described previously. 3 Brieﬂy, maltase, isomaltase, sucrase, and cellobiase were used as partially puriﬁed tissue extracts. Inhibition assays for each enzyme were performed with the respective natural substrate, and release of d-glucose measured by Glucose B-test (Wako Diagnostics). Assays of rat ER α-glucosidase II and human lysosomal α-glucosidase inhibition were conducted with α-p-nitrophenylglucoside as substrate; 400 mm Na2CO3 was added to quench these reactions, and the extent of hydrolysis was evaluated as absorbance at 400 nm by spectrophotometer.
ER α-glucosidase I inhibition assays were performed using anthranilic acid-labelled Glc3Man7GlcNAc2 as substrate. After terminating the reaction with acetonitrile, protein was removed by cen-trifugation through a 10 kDa molecular weight cut oﬀ ﬁlter. The amount of hydrolysis was then quantiﬁed by normal phase high performance liquid chromatography analysis of unreacted substrate and product (Glc2Man7GlcNAc2).4
ER α-glucosidase II inhibition assays using native-like substrates were performed using an-thranilic acid-labelled Glc2Man7GlcNAc2 as substrate. After terminating the reaction with acetonitrile, protein was removed by centrifugation through a 10 kDa molecular weight cut oﬀ ﬁlter. The amount of hydrolysis was then quantiﬁed by normal phase high performance liq-uid chromatography analysis of unreacted substrate and both products (Glc1Man7GlcNAc2

`CCCCN1CC(O)C(O)C(O)C1CO` [Compound 2, N-butyl-D-1-deoxynojirimycin, reference compound] showed an IC50 of 0.68 µM.

For `Cc1c(C)c2c(c(C)c1OCCCCCN1CC(O)C(O)C(O)C1CO)CCC(C)(CCCC(C)CCCC(C)CCCC(C)C)O2` (stereo not drawn) [Compound 4, 5′-tocopheroxypentyl-DNJ], the inhibition at 50 µM (50 μM, read-out: inhibition of GluI at the maximum tested concentration) was < 50% and the IC50 was > 50 µM.
